Results published in patent US20250262201A1, “COMPOUNDS AND METHODS USEFUL FOR STABILIZING PHENYLALANINE HYDROXYLASE MUTATIONS” (Agios Pharmaceuticals, Inc., priority 2022, published 2025).

What follows are molecules tested against T1, human PAH with the R408W mutation (Homo sapiens, UniProt P00439, R408W) (assay: Cell Based Phenylalanine Flux Assay). Conditions: A375 R408W cells, 24 hrs with compound, then 20 μM sepiapterin and 800 μM 13C9,15N-Phenylalanine for 4 hours; 13C-Tyrosine by LC-MS; average where tested multiple times.
T1 construct: expressed in transfected cells
T1 sequence (P00439 1-452 R408W): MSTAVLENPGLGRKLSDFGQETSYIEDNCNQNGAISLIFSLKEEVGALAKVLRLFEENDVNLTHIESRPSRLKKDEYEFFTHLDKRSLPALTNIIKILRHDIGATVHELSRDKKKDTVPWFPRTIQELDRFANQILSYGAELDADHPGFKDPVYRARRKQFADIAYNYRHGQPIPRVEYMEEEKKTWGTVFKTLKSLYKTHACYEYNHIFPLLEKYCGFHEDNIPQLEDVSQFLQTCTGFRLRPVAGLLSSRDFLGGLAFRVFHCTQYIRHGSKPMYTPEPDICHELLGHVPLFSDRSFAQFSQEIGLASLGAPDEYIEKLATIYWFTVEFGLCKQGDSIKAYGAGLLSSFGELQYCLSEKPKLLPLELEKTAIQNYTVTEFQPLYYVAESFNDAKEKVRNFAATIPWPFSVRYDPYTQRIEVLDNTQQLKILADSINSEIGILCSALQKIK
Parameters: scale not given here

AC50 | SMILES
E, E | O=C(c1oc(-c2cncnc2)nc1C(F)F)N1CCc2[nH]cnc2C1c1ncc2ccccc2n1 (stereo not shown)
E, E | O=C(c1oc(-c2ccncc2)nc1C(F)F)N1CCc2[nH]cnc2C1c1ncc2ccccc2n1 (stereo not shown)

SMILES | AC50
Cc1nc(C(F)(F)F)c(C(=O)N2CCc3nc[nH]c3[C@H]2c2cn3ccccc3n2)o1 (single isomer, unassigned) | E, E

Same assay, conditions: A375 R408W cells, 24 hrs with compound, then 20 μM sepiapterin and 800 μM 13C9,15N-Phenylalanine for 4 hours; 13C-Tyrosine by LC-MS; average where tested multiple times; read-out: AC50

AC50 [nM] | SMILES
1000 to 5000 | CC(C)(O)c1ccc2c(C(=O)N3CCc4[nH]cnc4C3c3ccc4ccccc4n3)cnn2c1 (stereo not shown)
1000 to 5000 | CC(C)(O)c1cc(C(=O)N2CCc3[nH]cnc3[C@H]2c2cc3ccccc3cn2)on1
> 5000 | Cc1nc(N2CCC(F)CC2)oc1C(=O)N1CCc2[nH]cnc2C1c1ccc2ccccc2n1 (stereo not shown)
> 5000 | CC(C)(O)c1cc(C(=O)N2CCc3[nH]cnc3C2c2ccc3ccccc3n2)[nH]n1 (stereo not shown)
1000 to 5000 | O=C(c1nnc(N2CCC(F)CC2)o1)N1CCc2[nH]cnc2C1c1ccc2ccccc2n1 (stereo not shown)
> 5000 | CN(C)Cc1ccc2c(C(=O)N3CCc4[nH]cnc4C3c3ccc4ccccc4n3)cnn2c1 (stereo not shown)
1000 to 5000 | Cc1ncoc1C(=O)N1CCc2[nH]cnc2C1c1cc2ccccc2cn1 (stereo not shown)
1000 to 5000 | O=C(c1nnc(-c2ccc(C(F)(F)F)cn2)o1)N1CCc2[nH]cnc2C1c1ccc2ccccc2n1 (stereo not shown)
> 5000 | Cc1nnc(C(=O)N2CCc3[nH]cnc3C2c2cc3ccccc3nn2)o1 (stereo not shown)
1000 to 5000 | CC1CN(C(=O)c2cnn3cc(CN(C)C)ccc23)C(c2cc3ccccc3cn2)c2nc[nH]c21 (stereo not shown) [listing 1 of 2 here]
1000 to 5000 | CC1CN(C(=O)c2cnn3cc(CN(C)C)ccc23)C(c2cc3ccccc3cn2)c2nc[nH]c21 (stereo not shown) [listing 2 of 2 here]
1000 to 5000 | O=C(Cc1coc(C(F)F)n1)N1CCc2nc[nH]c2C1c1cn2ccccc2n1 (stereo not shown)
1000 to 5000 | Cc1nc(CCN(C)C)oc1C(=O)N1CCc2[nH]cnc2C1c1ccc2ccccc2n1 (stereo not shown)
> 5000 | O=C(c1nnc(NC2CC2)o1)N1CCc2[nH]cnc2C1c1ccc2ccccc2n1 (stereo not shown)

Same assay, conditions: A375 cells expressing human R408W PAH; 24 hrs compound incubation; 13C-Tyrosine by LC-MS; average where tested multiple times; read-out: AC50

AC50 [nM] | SMILES
> 5000 | CC(C)(F)c1ncc(C(=O)N2CCc3[nH]cnc3[C@@H]2c2cn3ccccc3n2)s1 [Example 247, (S)-(2-(2-fluoropropan-2-yl)thiazol-5-yl)(4-(imidazo[1,2-a]pyridin-2-yl)-6,7-dihydro-1H-imidazo[4,5-c]pyridin-5(4H)-yl)methanone]
< 500 | CN(C)CCc1ccc2c(C(=O)N3CCc4[nH]cnc4[C@H]3c3cc4ccccc4cn3)cnn2c1 [Example 468, (R)-(6-(2-(dimethylamino)ethyl)pyrazolo[1,5-a]pyridin-3-yl)(4-(isoquinolin-3-yl)-6,7-dihydro-1H-imidazo[4,5-c]pyridin-5(4H)-yl)methanone]
500 to 1000 | O=C(c1nnc(-c2cc(C(F)(F)F)ccn2)o1)N1CCc2[nH]cnc2C1c1ccc2ccccc2n1 (stereo in doubt) [Example 107, (R)-(4-(quinolin-2-yl)-6,7-dihydro-1H-imidazo[4,5-c]pyridin-5(4H)-yl)(5-(4-(trifluoromethyl)pyridin-2-yl)-1,3,4-oxadiazol-2-yl)methanone]
< 500 | O=C(c1cnn2cc(N3CCOCC3)c(Cl)cc12)N1CCc2[nH]cnc2[C@H]1c1cc2ccccc2cn1 [Example 463, (R)-(5-chloro-6-morpholinopyrazolo[1,5-a]pyridin-3-yl)(4-(isoquinolin-3-yl)-6,7-dihydro-1H-imidazo[4,5-c]pyridin-5(4H)-yl)methanone]
1000 to 5000 | N#Cc1ncoc1C(=O)N1CCc2[nH]cnc2[C@@H]1c1ncc2ccccc2n1 [Example 148, (R)-5-(4-(quinazolin-2-yl)-4,5,6,7-tetrahydro-1H-imidazo[4,5-c]pyridine-5-carbonyl)oxazole-4-carbonitrile]
< 500 | C[C@@H]1CN(C(=O)c2nnc(C(C)(C)F)o2)[C@H](c2cc3ccccc3cn2)c2nc[nH]c21 [Example 501, (5-(2-fluoropropan-2-yl)-1,3,4-oxadiazol-2-yl)((4R,7R)-4-(isoquinolin-3-yl)-7-methyl-6,7-dihydro-1H-imidazo[4,5-c]pyridin-5(4H)-yl)methanone]
500 to 1000 | O=C(CCc1nccs1)N1CCc2[nH]cnc2C1c1ccc2ccccc2n1 (stereo in doubt) [Example 271, (R)-1-(4-(quinolin-2-yl)-6,7-dihydro-1H-imidazo[4,5-c]pyridin-5(4H)-yl)-3-(thiazol-2-yl)propan-1-one]
1000 to 5000 | O=C(c1oc(-c2ccccn2)nc1C1CC1)N1CCc2[nH]cnc2C1c1ccc2ccccc2n1 (stereo in doubt) [Example 44, (S)-(4-cyclopropyl-2-(pyridin-2-yl)oxazol-5-yl)(4-(quinolin-2-yl)-6,7-dihydro-1H-imidazo[4,5-c]pyridin-5(4H)-yl)methanone]
< 500 | O=C(c1oc(N2CCC(F)CC2)nc1C(F)F)N1CCc2[nH]cnc2[C@H]1c1ncc2ccccc2n1 [Example 280, (S)-(4-(difluoromethyl)-2-(4-fluoropiperidin-1-yl)oxazol-5-yl)(4-(quinazolin-2-yl)-6,7-dihydro-1H-imidazo[4,5-c]pyridin-5(4H)-yl)methanone]
1000 to 5000 | Cn1cc(C(=O)N2CCc3[nH]cnc3[C@@H]2c2ccc3ccccc3n2)c(Cl)n1 [Example 87]
1000 to 5000 | CC(C)(O)c1nc(Br)c(C(=O)N2CCc3[nH]cnc3C2c2ccc3ccccc3n2)o1 (stereo in doubt) [Example 98, (S)-(4-bromo-2-(2-hydroxypropan-2-yl)oxazol-5-yl)(4-(quinolin-2-yl)-6,7-dihydro-1H-imidazo[4,5-c]pyridin-5(4H)-yl)methanone]
< 500 | O=C(c1ocnc1C(F)(F)F)N1CCc2[nH]cnc2[C@H]1c1cn2ccccc2n1 [Example 234, (R)-(4-(imidazo[1,2-a]pyridin-2-yl)-6,7-dihydro-1H-imidazo[4,5-c]pyridin-5(4H)-yl)(4-(trifluoromethyl)oxazol-5-yl)methanone]
> 5000 | CN(C)Cc1ccc2c(C(=O)N3CCc4[nH]cnc4[C@@H]3c3ncc4ccccc4n3)cnn2c1 [Example 156, (R)-(6-((dimethylamino)methyl)pyrazolo[1,5-a]pyridin-3-yl)(4-(quinazolin-2-yl)-6,7-dihydro-1H-imidazo[4,5-c]pyridin-5(4H)-yl)methanone]
> 5000 | O=C(c1nnc(-c2ccc(F)cc2)o1)N1CCc2[nH]cnc2[C@@H]1c1cc2ccccc2cn1 [Example 343, (S)-(5-(4-fluorophenyl)-1,3,4-oxadiazol-2-yl)(4-(isoquinolin-3-yl)-6,7-dihydro-1H-imidazo[4,5-c]pyridin-5(4H)-yl)methanone]
< 500 | N#Cc1ncoc1C(=O)N1CCc2[nH]cnc2[C@H]1c1cc2ccccc2cn1 [Example 517, (R)-5-(4-(isoquinolin-3-yl)-4,5,6,7-tetrahydro-1H-imidazo[4,5-c]pyridine-5-carbonyl)oxazole-4-carbonitrile]
500 to 1000 | O=C(c1nnc(-c2cc[nH]n2)o1)N1CCc2[nH]cnc2[C@H]1c1ncc2ccccc2n1 [Example 175, (S)-(5-(1H-pyrazol-3-yl)-1,3,4-oxadiazol-2-yl)(4-(quinazolin-2-yl)-6,7-dihydro-1H-imidazo[4,5-c]pyridin-5(4H)-yl)methanone]
1000 to 5000 | Cc1nc(C(C)(C)O)oc1C(=O)N1CCc2[nH]cnc2[C@H]1c1ccc2ccccc2n1 [Example 13]
> 5000 | O=C(c1cnc(-c2ccccn2)o1)N1CCc2[nH]cnc2[C@@H]1c1ncc2ccccc2n1 [Example 157, (R)-(2-(pyridin-2-yl)oxazol-5-yl)(4-(quinazolin-2-yl)-6,7-dihydro-1H-imidazo[4,5-c]pyridin-5(4H)-yl)methanone]
< 500 | O=C(c1nnc(N2CC(F)C2)o1)N1CCc2[nH]cnc2[C@H]1c1cc2ccccc2cn1 [Example 424, (R)-(5-(3-fluoroazetidin-1-yl)-1,3,4-oxadiazol-2-yl)(4-(isoquinolin-3-yl)-6,7-dihydro-1H-imidazo[4,5-c]pyridin-5(4H)-yl)methanone]
1000 to 5000 | Cn1nc(C(F)F)cc1C(=O)N1CCc2[nH]cnc2C1c1ccc2ccccc2n1 (stereo in doubt) [Example 74, (S)-(3-(difluoromethyl)-1-methyl-1H-pyrazol-5-yl)(4-(quinolin-2-yl)-6,7-dihydro-1H-imidazo[4,5-c]pyridin-5(4H)-yl)methanone]
< 500 | Cc1ncccc1-c1ccc2c(C(=O)N3CCc4[nH]cnc4[C@H]3c3cc4ccccc4cn3)cnn2c1 [Example 480, (R)-(4-(isoquinolin-3-yl)-6,7-dihydro-1H-imidazo[4,5-c]pyridin-5(4H)-yl)(6-(2-methylpyridin-3-yl)pyrazolo[1,5-a]pyridin-3-yl)methanone]
> 5000 | Cn1cc(-c2nnc(C(=O)N3CCc4[nH]cnc4[C@@H]3c3cc4ccccc4cn3)o2)cn1 [Example 323, (S)-(4-(isoquinolin-3-yl)-6,7-dihydro-1H-imidazo[4,5-c]pyridin-5(4H)-yl)(5-(1-methyl-1H-pyrazol-4-yl)-1,3,4-oxadiazol-2-yl)methanone]
> 5000 | Cc1ncoc1C(=O)N1CCc2[nH]cnc2[C@@H]1c1cn2ccccc2n1 [Example 227, (S)-(4-(imidazo[1,2-a]pyridin-2-yl)-6,7-dihydro-1H-imidazo[4,5-c]pyridin-5(4H)-yl)(4-methyloxazol-5-yl)methanone]
